Test results as given in patent publication US7547729B2, “1,3-diphenylprop-2-en-1-one derivative compounds, preparation method thereof and uses of same” (Genfit, priority 2004, dated 2009).

Key:
[1] = system: monocyte-derived dendritic cells; experiment: Differentiation of monocytes to dendritic cells (flow cytometry of surface markers); assay type: cell-based
Description: Compound 39 (10^−6 M) was added at D0 of differentiation of monocytes to dendritic cells. After six days of differentiation (in the presence of cytokines GM-CSF and IL-4), the dendritic cells were analyzed by flow cytometry.
For these experiments, blood samples from volunteer donors (Etablissement Francais du Sang) and monocytes were isolated by a standard protocol using anti-CD14-conjugated magnetic beads (Miltenyi Biotec). Monocytes isolated in this manner were then induced to differentiate by incubation for 6 days in culture medium containing a mixture of cytokines GM-CSF and IL-4 (20 ng/ml for each cytokine).
Compound 39 was added at t=0 and acquisition of the dendritic cell phenotype was followed by expression of the cell surface marker CD1a.

[2] = system: LDL; experiment: Protection against LDL oxidation by copper (conjugated diene formation); assay type: biochemical; settings: 10^−4M; for diene oxidation rate: FIG. 7b
Description: Unless otherwise indicated, the reagents were from Sigma (St Quentin, France). LDL were prepared according to the method described by Lebeau et al. (Lebeau, Furman et al. 2000).
The solutions of test compounds were prepared at 10^−2 M concentration in bicarbonate buffer (pH 9) and diluted in PBS to obtain final concentrations ranging from 0.1 to 100 μM
Prior to oxidation, EDTA was removed from the LDL preparation by dialysis. Oxidation then took place at 30° C. by adding 100 μl of 16.6 μM CuSO4 solution to 160 μL of LDL (125 μg protein/ml) and 20 μl of a test compound solution. The formation of dienes, the species under observation, was followed by measuring optical density at 232 nm in the samples treated with the compounds in the presence or absence of copper. Optical density at 232 nm was measured every 10 minutes for 8 hours in a thermostated spectrophotometer (Tecan Ultra 380). The analyses were performed in triplicate. The compounds were considered to have antioxidant activity when they induced a longer lag phase and reduced the rate of oxidation and the amount of dienes formed in comparison with the control sample.

[3] = biological target: T1, PPARα (Homo sapiens, UniProt Q07869); experiment: PPARα/Gal4 transactivation system in COS-7 cells; assay type: cell-based; settings: 24 hours
T1 construct: expressed in transfected cells; host or cells: COS-7 cells
T1 sequence (Q07869 239-466 limits assumed): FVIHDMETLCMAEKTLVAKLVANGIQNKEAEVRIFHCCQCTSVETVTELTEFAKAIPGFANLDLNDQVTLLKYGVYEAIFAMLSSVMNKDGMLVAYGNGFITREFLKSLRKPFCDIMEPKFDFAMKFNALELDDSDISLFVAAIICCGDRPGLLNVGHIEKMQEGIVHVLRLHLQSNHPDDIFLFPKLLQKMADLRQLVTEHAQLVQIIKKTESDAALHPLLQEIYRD
Description: (§1) COS-7 cells were incubated with different concentrations of the inventive compounds for 24 hours. The results are expressed as the induction factor (ratio of luminescent signal obtained with the compound and that observed without the compound) after the different treatments.
(§2) PPAR activation was tested in vitro in RK13 epitheloid or COS-7 cell lines by measuring the transcriptional activity of chimeras composed of the DNA binding domain of the yeast gal4 transcription factor and the ligand binding domain of the different PPARs. These latter results were then confirmed in cell lines according to the following protocols:
(§3) RK13 cells were from ECACC (Porton Down, UK), COS-7 cells were from the ATCC (American Type Culture Collection) and were grown in DMEM medium supplemented with 10% (VN) fetal calf serum, 100 U/ml penicillin (Gibco, Paisley, UK) and 2 mM L-glutamine (Gibco, Paisley, UK). The culture medium was changed every two days. Cells were kept at 37° C. in a humidified 95% air/5% CO2 atmosphere.
(§4) The plasmids pG5TkpGL3, pRL-CMV, pGal4-hPPARα, pGal4-hPPARγ, pGal4-hPPARδ and pGal4-φ have been described by Raspe, Madsen et al. (1999). The pGal4-mPPARα, pGal4-hPPARγ and pGal4-hPPARδ constructs were obtained by cloning into the pGal4-φ vector of PCR-amplified DNA fragments corresponding to the DEF domains of the human PPARα, PPARγ and PPARδ nuclear receptors.
(§5) RK13 cells were seeded in 24-well culture dishes at 5×10^4 cells/well, COS-7 cells in 96-well culture dishes at 5×10^4 cells/well and transfected for 2 hours with the reporter plasmid pG5TkpGL3 (50 ng/well), the expression vectors pGal4-φ, pGal4-mPPARα, pGal4-hPPARα, pGal4-hPPARγ, pGal4-hPPARδ (100 ng/well) and the transfection efficiency control vector pRL-CMV (1 ng/well) according to the previously described protocol (Raspe, Madsen et al. 1999), then incubated for 36 hours with the test compounds. At the end of the experiment, the cells were lysed (Gibco, Paisley, UK) and luciferase activity was determined with a Dual-Luciferase™ Reporter Assay System kit (Promega, Madison, Wis., USA) for RK13 cells and Steady Glow Luciferase (Promega) for COS-7 cells according to the supplier's instructions as previously described. The protein content of the cell extracts was then measured with the Bio-Rad Protein Assay (Bio-Rad, Munich, Germany) as directed by the supplier.

[4] = system: Apo E2/E2 transgenic mice; experiment: Effects on triglyceride and cholesterol metabolism in Apo E2/E2 transgenic mice; assay type: in vivo; settings: gavage, 50 mg/kg/day, seven days
Description: FIGS. 19a, 19b, 19c, 19d, 20a, 20b, 20c and 20d illustrate the effects of treatment with compound 2 (Cpd2), compound 13 (Cpd13), compound 33 (Cpd33) and compound 39 (Cpd39) on triglyceride and cholesterol metabolism in Apo E2/E2 transgenic mice treated by gavage with the compound at a dose of 50 mg/kg/day, for seven days.
Apo E2/E2 transgenic mice were housed in a 12-hour light/dark cycle at a constant temperature of 20±3° C. After a 1-week acclimatization period, the mice were weighed and divided into groups of 6 animals selected such that the distribution of body weight was uniform. The test compounds were suspended in carboxymethylcellulose and administered by gastric lavage at the indicated doses, once a day for 7 days. Animals had access to food and water ad libitum. At the end of the experiments, animals were weighed and sacrificed under anesthesia. Blood was collected on EDTA. Plasma was isolated by centrifugation at 3000 rpm for 20 minutes. Liver samples were removed and stored frozen in liquid nitrogen for later analysis.
Lipid concentrations in plasma (total cholesterol and free cholesterol, triglycerides and phospholipids) were determined by a colorimetric assay (Boehringer, Mannheim, Germany) according to the supplier's instructions. Plasma concentrations of apolipoproteins AI, AII and CIII were determined as previously described (Raspe et al. 1999, Asset G et al., Lipids, 1999).

[5] = biological target: T2, PPARγ (Homo sapiens, UniProt P37231); experiment: PPARγ/Gal4 transactivation system in COS-7 cells; assay type: cell-based; settings: 24 hours
T2 construct: expressed in transfected cells; host or cells: COS-7 cells
T2 sequence (P37231 238-503 limits assumed): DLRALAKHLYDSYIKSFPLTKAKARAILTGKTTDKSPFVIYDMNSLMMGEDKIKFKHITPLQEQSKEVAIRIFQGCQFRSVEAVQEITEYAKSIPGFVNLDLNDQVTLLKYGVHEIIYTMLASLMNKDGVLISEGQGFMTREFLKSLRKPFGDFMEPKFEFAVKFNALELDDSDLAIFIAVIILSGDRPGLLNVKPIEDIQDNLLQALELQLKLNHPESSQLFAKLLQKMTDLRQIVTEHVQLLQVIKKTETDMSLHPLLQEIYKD
Description: as §1, §2, §3, §4, §5

[6] = biological target: T3, PPARδ (Homo sapiens, UniProt Q03181); experiment: PPARδ/Gal4 transactivation system in COS-7 cells; assay type: cell-based; settings: 24 hours
T3 construct: expressed in transfected cells; host or cells: COS-7 cells
T3 sequence (Q03181 211-439 limits assumed): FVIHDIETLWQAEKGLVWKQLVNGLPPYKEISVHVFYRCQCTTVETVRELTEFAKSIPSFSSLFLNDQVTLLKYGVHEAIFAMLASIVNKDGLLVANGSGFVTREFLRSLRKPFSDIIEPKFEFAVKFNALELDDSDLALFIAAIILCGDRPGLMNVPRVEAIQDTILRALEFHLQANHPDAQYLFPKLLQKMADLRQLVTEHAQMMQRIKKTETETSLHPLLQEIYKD
Description: as §1, §2, §3, §4, §5

[7] = compound added at t=0, six days differentiation, data not shown
[8] = FIG. 7a, absence of compounds 67.3 minutes

Row | Induction factor ([3]; 0.001 μM) | Induction factor ([3]; 0.003 μM) | Induction factor ([3]; 0.01 μM) | Induction factor ([3]; 0.03 μM) | Induction factor ([3]; 0.1 μM) | Induction factor ([3]; 0.3 μM) | Induction factor ([3]; 1 μM) | Induction factor ([5]; 0.001 μM) | Induction factor ([5]; 0.003 μM) | Induction factor ([5]; 0.01 μM) | Induction factor ([5]; 0.03 μM) | Induction factor ([5]; 0.1 μM) | Induction factor ([5]; 0.3 μM) | Induction factor ([5]; 1 μM) | Induction factor ([5]; 3 μM) | Induction factor ([6]; 0.01 μM) | Induction factor ([6]; 0.03 μM) | Induction factor ([6]; 0.1 μM) | Compound | plasma cholesterol [4] | plasma triglycerides [4] | other results
1 | 1.08 | 1.17 | 3.19 | 7.69 | 9.68 | 10.16 | 10.42 | 0.95 | 0.96 | 1.56 | 3.06 | 4.08 | 4.86 | 4.78 | 4.72 |  |  |  | CCCCCCSc1c(C)cc(C(=O)/C=C/c2cc(C)c(OC(C)(C)C(=O)O)c(C)c2)cc1C [compound 39, 1-(4-Hexylthio-3,5-dimethylphenyl)-3-(4-carboxydimethylmethyloxy-3,5-dimethylphenyl)prop-2-en-1-one] | decrease | decrease | expression of CD1a at the cell surface ([1]; 10^−6 M added at D0, six days with GM-CSF and IL-4): almost totally inhibiting; CD86 expression [1, 7]: slightly increased; expression of the costimulation molecule CD80 [1, 7]: reduced, to a lesser extent; lag phase ([2]; FIG. 8a, absence of compounds 67.3 minutes): 133 min; rate of LDL oxidation ([2]; FIG. 8b, absence of compounds 2.5): 1.2 nmol/min/mg; total amount of dienes formed ([2]; FIG. 8c, absence of compound 432.3): 371.2 nmol/mg; Induction factor ([3]; 3 μM): 9.96
2 | 1.10 | 1.58 | 4.99 | 10.89 | 16.87 | 15.95 | 17.05 | 0.99 | 1.15 | 1.67 | 2.18 | 3.01 | 3.66 | 4.03 | 3.89 | 1.50 | 2.17 | 3.37 | CSc1c(C)cc(C(=O)/C=C/c2cc(C)c(OC(C)(C)C(=O)O)c(C)c2)cc1C [compound 13, 1-(4-Methylthio-3,5-dimethylphenyl)-3-(4-carboxydimethylmethyloxy-3,5-dimethylphenyl)prop-2-en-1-one] | decrease | decrease | Induction factor ([6]; 0.3 μM): 14.00; Induction factor ([6]; 1 μM): 28.75; Induction factor ([6]; 3 μM): 27.72; lag phase [2, 8]: 219 min; diene oxidation rate ([2]; absence of compounds 2.5): 1.5 nmol/min/mg of LDL
3 | 5.23 | 15.18 | 19.53 | 19.71 | 19.17 | 20.82 | 19.97 | 1.18 | 1.61 | 2.65 | 3.54 | 4.88 | 5.95 | 6.93 | 7.99 | 1.87 | 5.29 | 15.01 | Cc1cc(/C=C/C(=O)c2ccc(Oc3ccccc3)cc2)cc(C)c1OC(C)(C)C(=O)O [compound 33, 1-(4-Phenyloxyphenyl)-3-(4-carboxydimethylmethyloxy-3,5-dimethylphenyl)prop-2-en-1-one] | decrease | decrease | Induction factor ([6]; 0.001 μM): 1.17; Induction factor ([6]; 0.003 μM): 1.23; Induction factor ([6]; 0.3 μM): 33.89; Induction factor ([6]; 1 μM): 74.09; Induction factor ([6]; 3 μM): 90.84; lag phase [2, 8]: 148 min; diene oxidation rate ([2]; absence of compounds 2.5): 1.4 nmol/min/mg of LDL; total amount of dienes formed ([2]; FIG. 7c, absence of compounds 432.5): 399 nmol/mg of LDL; Induction factor ([5]; 10 μM): 6.30
4 |  |  |  |  |  |  | 5.48 |  |  |  |  |  |  | 4.12 |  |  |  |  | Cc1cc(/C=C/C(=O)c2ccc(OCCCCCC3CCSS3)cc2)cc(C)c1OC(C)(C)C(=O)O (racemic) [compound 6, 1-(4-((R,S)-5-[1,2]dithiolan-3-ylpentyloxy)phenyl)-3-(4-carboxydimethylmethyloxy-3,5-dimethylphenyl)prop-2-en-1-one] |  |  | lag phase ([2]; FIG. 2a, copper alone 132 minutes): 205 min; rate of diene formation ([2]; FIG. 2b, copper alone 2.2): 1.7 nmol/min/mg; total amount of dienes formed ([2]; FIG. 2c, copper alone 511): 443 nmol/mg; Induction factor ([3]; 10 μM): 7.01; Induction factor ([5]; 10 μM): 6.83
